PMC4118827, “Mapping the conformational space accessible to catechol-O-methyltransferase” (Acta Crystallographica Section D: Biological Crystallography, 2014)
Numbering of substitutions follows the chain as printed. pIC50: −log10 of the molar value.

How the values were obtained:
[1] = molecular target: T1, humanized rat COMT (hrCOMT), catechol-O-methyltransferase (Rattus norvegicus, UniProt P22734, M134I/Y138C); assay: co-crystal structure ([…]) at […] Å; IC50 from activity-based high-throughput screen; format: biochemical
T1 sequence (P22734 44-264 M134I/Y138C): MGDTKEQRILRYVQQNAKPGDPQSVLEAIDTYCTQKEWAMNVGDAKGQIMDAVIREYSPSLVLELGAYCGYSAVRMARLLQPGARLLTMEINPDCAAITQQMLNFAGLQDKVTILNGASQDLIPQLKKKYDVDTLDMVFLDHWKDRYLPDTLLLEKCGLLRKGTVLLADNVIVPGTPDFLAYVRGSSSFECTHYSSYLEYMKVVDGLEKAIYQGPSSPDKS

[2] = molecular target: T2, rat COMT (rCOMT), catechol-O-methyltransferase (Rattus norvegicus, UniProt P22734); assay: co-crystal structures ([…]), semi-holo, and ([…]), with tolcapone and Mg2+; format: binding
T2 construct: soluble N-terminally truncated form, lacks the N-terminal 43 residues
T2 sequence (P22734 44-264): T1 sequence (P22734 44-264 M134I/Y138C) with I91M, C95Y

pIC50 [1] | Structure (SMILES) | co-crystal structures (7), semi-holo, and (8), with tolcapone and Mg2+ [2]
5.36 | N=C(N)c1ccc(NC(=O)Nc2cccc(CN)c2)cc1 [4-[3-(3-aminomethylphenyl)-ureido]-benzamidine] | 
 | Nc1ncnc2c1ncn2[C@@H]1O[C@H](C[C@@H](N)CC[C@H](N)C(=O)O)[C@@H](O)[C@H]1O [sinefungin] | Co-crystal structure with the SAM analogue sinefungin. Semi-holo form.
